{"source": "patent US20070154405A1", "about": "“AEROSOL APPARATUS CONTAINING A COMPOSITION FOR APPLYING SIMULTANEOUSLY SEVERAL TOPICAL STIMULI” (priority 2005, published 2007)", "key": {"Atopic Dermatitis": {"system": "Atopic Dermatitis", "assay": "Clinical Study 2: randomized single blind comparison of N1 and Hydrocortisone 1% in atopic dermatitis, SASSAD severity score", "assay_type": "in vivo, human", "excerpt": "The patients taking part in the clinical studies were given free kits of the aerosol apparatus of the present invention and a set of instructions detailing method of use as follows: 1) Remove clothing of the area of application. 2) If the face needs to be treated, the eyes should be closed or masked (for babies or small children) 3) Hold the apparatus at a distance of 10 cm-20 cm approximately. 4) Press the apparatus's actuator to release the water-based particles. 5) Apply for a few seconds or as needed then leave the treated areas to dry untouched. Repeat as many times as needed until the symptoms ease. 6) In chronic cases and in order to speed the healing process, apply a daily regimen of four times per day, once before bedtime until symptoms reduce or disappear.\n125 Patients took part in a comparative, randomized, single (observer) blind, controlled clinical study.\nThe scoring system used to evaluate the results of both groups is “Six area, six sign atopic dermatitis (SASSAD) severity score [Jones J B. Six area, six sign atopic dermatitis (SASSAD) severity score: A simple system for monitoring disease activity in atopic dermatitis. Br J Dermatol. 1996; 135 (Suppl 48): 25-30] […] The signs are: Dryness, lichenification, cracking, erythema, exudation and excoriation. the six areas of the body are head, neck, trunk, arms, hands, legs and feet. The severity of the lesions are assessed as 0, 1, 2 and 3 for no lesion, mild, moderate and severe lesions respectively for each sign in each body area resulting in a score of maximum 18 for each sign. The six signs were evaluated objectively by the investigating physicians. Itching being a subjective symptom was evaluated by the patient.\nThe atopic dermatitis diagnosis was based on [Hanifin J. M., Rajka G. Diagnostic Features of Atopic Dermatitis, Acta Derma (Stock) Suppl. 92:44-47, 1980]."}, "[1]": {"system": "Itching (Atopic Dermatitis)", "assay": "Clinical Study 2: itching by patient VAS in atopic dermatitis patients", "assay_type": "in vivo, human", "excerpt": "125 Patients took part in a comparative, randomized, single (observer) blind, controlled clinical study. […] The age difference for both groups of males and females was statistically insignificant t=0.551, P=0.582 and t=1.307, P=0.194 respectively. […] The similar distribution allowed for a matching analysis with no statistical difference where Chi-square test=0.001, P=0.976. Due to the subjective nature of this symptom, all the patients were given VAS (Visual analogue scale graded 0=no itch to 10=severe itch) to complete at home twice daily, once in the morning and once in the evening, on the fifth, sixth and seventh day, after allowing for a washout period of four days. Table IX clarify the mean VAS score in both groups after treatment with their respective intervention. The N1 group has experienced a significant decline in their VAS score throughout the 5th, 6th and 7th days where paired t test for the decline in the 5th day=6.96, P=0.001 and for the 6th day=6.74, P=0.001 and for the 7th day=2.76, p=0.006."}, "[2]": {"conditions": "Base score, listed as hydrocortisone"}, "[3]": {"conditions": "Week 1, listed as hydrocortisone"}}, "note": "Several values for one entry are separate records, joined by “and”; a condition that tells them apart may be missing. Identical values can stand only once."}
{"smiles": "C[C@]12CCC(=O)C=C1CC[C@@H]1[C@@H]2[C@@H](O)C[C@@]2(C)[C@H]1CC[C@]2(O)C(=O)CO", "note": "[Hydrocortisone]", "values": [{"measurement": "Mean Cracking score", "setting": "Atopic Dermatitis; Base score", "value": 1.17}, {"measurement": "Mean Dryness score", "setting": "Atopic Dermatitis; Base score", "value": 4.32}, {"measurement": "Mean Erythema score", "setting": "Atopic Dermatitis; Base score", "value": 3.6}, {"measurement": "Mean Excoriation score", "setting": "Atopic Dermatitis; Base score", "value": 2.7}, {"measurement": "Mean Exudation score", "setting": "Atopic Dermatitis; Base score", "value": 3.18}, {"measurement": "Mean Lichenification score", "setting": "Atopic Dermatitis; Base score", "value": 2.44}, {"measurement": "Mean Erythema score", "setting": "Atopic Dermatitis; [2]", "value": "3.6±2.5"}, {"measurement": "Mean Lichenification score", "setting": "Atopic Dermatitis; [2]", "value": "2.44±1.7"}, {"measurement": "Mean Dryness score", "setting": "Atopic Dermatitis; Week 1", "value": 2.9}, {"measurement": "Mean Erythema score", "setting": "Atopic Dermatitis; Week 1", "value": 2.9}, {"measurement": "Mean Excoriation score", "setting": "Atopic Dermatitis; Week 1", "value": 1.97}, {"measurement": "Mean Exudation score", "setting": "Atopic Dermatitis; Week 1", "value": 2.5}, {"measurement": "Mean Lichenification score", "setting": "Atopic Dermatitis; Week 1", "value": 1.55}, {"measurement": "Mean Exudation score", "setting": "Atopic Dermatitis; [3]", "value": "2.5±2.4"}, {"measurement": "Mean Lichenification score", "setting": "Atopic Dermatitis; [3]", "value": "1.55±1.9"}, {"measurement": "Mean Dryness score", "setting": "Atopic Dermatitis; Week 2", "value": 2.13}, {"measurement": "Mean Erythema score", "setting": "Atopic Dermatitis; Week 2", "value": 1.8}, {"measurement": "Mean Excoriation score", "setting": "Atopic Dermatitis; Week 2", "value": 1.6}, {"measurement": "Mean Lichenification score", "setting": "Atopic Dermatitis; Week 2", "value": ".82"}, {"measurement": "Mean Lichenification score", "setting": "Atopic Dermatitis; Week 2, listed as hydrocortisone", "value": "0.82±1.3"}, {"measurement": "group cleared of atopic dermatitis (SASSAD score of 0 or 1)", "setting": "Atopic Dermatitis; after Week One", "value": 14, "unit": "%"}, {"measurement": "group cleared of Atopic dermatitis", "setting": "Atopic Dermatitis; after two weeks treatment, total", "value": 11, "unit": "%"}, {"measurement": "patients cleared from atopic dermatitis (SASSAD score=0)", "setting": "Atopic Dermatitis; after week one", "value": 9, "unit": "patients"}, {"measurement": "patients cleared from atopic dermatitis (SASSAD score=0), percent of group", "setting": "Atopic Dermatitis; after week one", "value": 3.81, "unit": "%"}, {"measurement": "Mean SASSAD score", "setting": "Atopic Dermatitis; at baseline, before treatment", "value": "17.51±7.37 and 17.52 and 17.5"}, {"measurement": "Mean SASSAD score", "setting": "Atopic Dermatitis; at baseline, before treatment, listed as hydrocortisone", "value": "17.52±7.37"}, {"measurement": "group cleared of atopic dermatitis (SASSAD score of 0 or 1)", "setting": "Atopic Dermatitis; at the end of Week Two", "value": 6.3, "unit": "%"}, {"measurement": "Mean SASSAD score", "setting": "Atopic Dermatitis; end of week one", "value": "12.82±8.34 and 12.52±8.34 and 12.82 and 12.5"}, {"measurement": "Mean SASSAD score", "setting": "Atopic Dermatitis; end of week two, patients who continued treatment", "value": "8.4±6 and 8.4"}, {"measurement": "Mean SASSAD score", "setting": "Atopic Dermatitis; end of week two, patients who continued treatment, listed as hydrocortisone", "value": "8.4±6"}, {"measurement": "itch free duration, mean", "setting": "[1]; 3 day self-monitoring period", "value": "1.76 ± 1.21", "unit": "h"}, {"measurement": "Mean itch VAS (0=no itch to 10=severe itch)", "setting": "[1]; Day 5 Evening", "value": 7.69}, {"measurement": "Mean itch VAS (0=no itch to 10=severe itch)", "setting": "[1]; Day 5 Morning", "value": 8.01}, {"measurement": "Mean itch VAS (0=no itch to 10=severe itch)", "setting": "[1]; Day 5 Morning, listed as hydrocortisone", "value": "8.01±1.65"}, {"measurement": "Mean itch VAS (0=no itch to 10=severe itch)", "setting": "[1]; Day 6 Evening", "value": 7.06}, {"measurement": "Mean itch VAS (0=no itch to 10=severe itch)", "setting": "[1]; Day 6 Morning", "value": 7.17}, {"measurement": "Mean itch VAS (0=no itch to 10=severe itch)", "setting": "[1]; Day 7 Evening", "value": 6.58}, {"measurement": "Mean itch VAS (0=no itch to 10=severe itch)", "setting": "[1]; Day 7 Evening, listed as hydrocortisone", "value": "6.58±1.97"}, {"measurement": "Mean itch VAS (0=no itch to 10=severe itch)", "setting": "[1]; Day 7 Morning", "value": 6.63}, {"measurement": "Mean itch VAS (0=no itch to 10=severe itch)", "setting": "[1]; Day 7 Morning, listed as hydrocortisone", "value": "6.63±1.93"}]}
